Data on 6 molecules can be found in patent US9149536B2, “Conjugated antimicrobial agents” (priority 2009, dated 2015).

SMILES strings stand for the structures. ≈ marks a conversion by molar mass, not a printed value. Bounds are passed on as bounds.

The subject of one test is E. coli ATCC 25922. In words: MIC, double-microdilution, E. coli ATCC 25922. The test is classed as cell-based, Escherichia coli. Particulars: for MIC E. coli ATCC 25922: Table 4; for MIC E. coli 25922: Table 6.
A further test has as its system E. coli AG100B. In words: MIC, double-microdilution, E. coli AG100B. The test is classed as cell-based, Escherichia coli. From the text:
AG100B and AG100A are two kanamycin resistant Escherichia coli strains expressing APH(3′)-I aminoglycoside resistance enzyme.

Another test relates to E. coli R477-100. In words: MIC, double-microdilution, E. coli R477-100. The test is classed as cell-based, Escherichia coli.
The test system of a further test is E. coli AG100A. The test can be described thus: MIC, double-microdilution, E. coli AG100A. The test is classed as cell-based, Escherichia coli.
A further test relates to MRSA ATCC 43300. The test can be described thus: microbe, parasite or virus in culture. The test is classed as cell-based, S. aureus. Particulars: Table 4.
Another test has as its system B. subtilis ATCC 6633. The test can be described thus: MIC, double-microdilution, B. subtilis ATCC 6633. The test is classed as cell-based. Particulars: for MIC B. subtilis ATCC 6633: Table 4; for MIC Bacillus subtilis: Table 6.
Another test has as its system E. coli XL1 blue/pET9d. In words: microbe, parasite or virus in culture. The test is classed as cell-based. Particulars: Table 6. As to the method:
(§1) For this purpose, exemplary conjugates, according to some embodiments of the present invention, were tested against five isogenic E. coli strains. E. coli (pSF815) and E. coli (pET9d) are laboratory resistant strains derived by transformation of E. coli XL1 blue (background strain) with the pSF815 and pET9d plasmids, respectively. […] The last two isogenic strains used were E. coli BL21 (background strain) and E. coli (pETSACG1). […] These three enzymes are among the most prevalent modes of resistance found in aminoglycosides resistance strains.
(§2) The MIC ratios were calculated by dividing the MIC value against resistant strain to that against the respective background strain.

For a further test, the system named is E. coli XL1 blue. In words: microbe, parasite or virus in culture. The test is classed as cell-based. Particulars: Table 6. As to the method:
as §1, §2

Where [1] appears, read: Table 4, kanamycin resistant, APH(3′)-I.

Take `NCC1OC(OC2C(C(=O)NCc3cn(CCCCCN4CCN(c5cc6c(cc5F)c(=O)c(C(=O)O)cn6C5CC5)CC4)nn3)OC(OC3C(O)C(N)CC(N)C3OC3OC(CN)C(O)C(O)C3N)C2O)C(N)C(O)C1O` (centres unmarked) [Compound 1l, N-((1-(4-(ciprofloxacin)pentyl)-1H-1,2,3-triazol-4-yl)-5″-methyl)neomycin carboxamide]: the “MIC E. coli ATCC 25922” value in the test on E. coli ATCC 25922 is 6 µg/mL (≈ 5.41 µM). In the test with E. coli AG100B (setting [1]), the “MIC E. coli AG100B” value was found to be 24 µg/mL (≈ 21.7 µM). Also, the “MIC E. coli R477-100” value with E. coli R477-100 (Table 4) came out at 24 µg/mL (≈ 21.7 µM). For the same molecule, the “MIC E. coli AG100A” value in the test on E. coli AG100A (setting [1]) came to 1.5 µg/mL (≈ 1.35 µM). Also, the “MIC MRSA ATCC 43300” value against MRSA ATCC 43300 was found to be 48 µg/mL (≈ 43.3 µM). In addition, in the test with B. subtilis ATCC 6633, the “MIC B. subtilis ATCC 6633” value worked out at 12 µg/mL (≈ 10.8 µM).

Regarding `NC[C@H]1O[C@H](O[C@H]2[C@H](O)[C@@H](O[C@H]3O[C@H](CO)[C@@H](O)[C@H](N)[C@H]3O)[C@H](N)C[C@@H]2N)[C@H](O)[C@@H](O)[C@@H]1O` [KanA, kanamycin A, reference compound], the “MIC E. coli XL1 blue/pET9d-aph(3′)-Ia” value against E. coli XL1 blue/pET9d is more than 384 μg/ml. Besides, in the test on E. coli XL1 blue, the “MIC E. coli XL1 blue” value turned out to be 3 µg/mL (≈ 6.19 µM). Besides, in the test on E. coli ATCC 25922, the “MIC E. coli 25922” value is 12 µg/mL (≈ 24.8 µM). Besides, the “MIC E. coli AG100B” value in the test with E. coli AG100B (Table 6) was more than 384 µg/mL. Moreover, the “MIC E. coli R477-100” value in the test with E. coli R477-100 (Table 6) was found to be 24 µg/mL (≈ 49.5 µM). For the same molecule, the “MIC E. coli AG100A” value against E. coli AG100A (Table 6) came out at 384 µg/mL (≈ 793 µM). Further, in the test on B. subtilis ATCC 6633, the “MIC Bacillus subtilis” value was 1.5 µg/mL (≈ 3.1 µM).

Consider `NCC1OC(OC2C(C(=O)Nc3ccc(-c4cn(CCCN5CCN(c6cc7c(cc6F)c(=O)c(C(=O)O)cn7C6CC6)CC5)nn4)cc3)OC(OC3C(O)C(N)CC(N)C3OC3OC(CN)C(O)C(O)C3N)C2O)C(N)C(O)C1O` (centres unmarked) [Compound 1b, N-(4-(1-(2-(ciprofloxacin)propyl)-1H-1,2,3-triazol-4-yl)-5″-phenyl)neomycin carboxamide], for which the “MIC E. coli ATCC 25922” value in the test on E. coli ATCC 25922 stood at 3 µg/mL (≈ 2.63 µM). For the same molecule, the “MIC E. coli AG100B” value in the test on E. coli AG100B (setting [1]) is 12 µg/mL (≈ 10.5 µM). The “MIC E. coli R477-100” value with E. coli R477-100 (Table 4) was determined as 6 µg/mL (≈ 5.25 µM). Besides, the “MIC E. coli AG100A” value against E. coli AG100A (setting [1]) came out at 1.5 µg/mL (≈ 1.31 µM). Also, the “MIC MRSA ATCC 43300” value with MRSA ATCC 43300 is 48 µg/mL (≈ 42 µM). For the same molecule, the “MIC B. subtilis ATCC 6633” value with B. subtilis ATCC 6633 was 6 µg/mL (≈ 5.25 µM).

Consider `NCC1OC(OC2C(C(=O)NCc3cn(CCCN4CCN(c5cc6c(cc5F)c(=O)c(C(=O)O)cn6C5CC5)CC4)nn3)OC(OC3C(O)C(N)CC(N)C3OC3OC(CN)C(O)C(O)C3N)C2O)C(N)C(O)C1O` (centres unmarked) [Compound 1k, N-((1-(4-(ciprofloxacin)propyl)-1H-1,2,3-triazol-4-yl)-5″-methyl)neomycin carboxamide], for which the “MIC E. coli ATCC 25922” value with E. coli ATCC 25922 came out at 6 µg/mL (≈ 5.55 µM). The “MIC E. coli AG100B” value with E. coli AG100B (setting [1]) is 12 µg/mL (≈ 11.1 µM). Besides, the “MIC E. coli R477-100” value against E. coli R477-100 (Table 4) is 12 µg/mL (≈ 11.1 µM). Also, the “MIC E. coli AG100A” value in the test on E. coli AG100A (setting [1]) is 1.5 µg/mL (≈ 1.39 µM). The “MIC MRSA ATCC 43300” value in the test with MRSA ATCC 43300 turned out to be 48 µg/mL (≈ 44.4 µM). The “MIC B. subtilis ATCC 6633” value against B. subtilis ATCC 6633 was determined as 6 µg/mL (≈ 5.55 µM).

For the molecule `NCC1OC(OC2C(N)CC(NCc3cn(CC(O)CN4CCN(c5cc6c(cc5F)c(=O)c(C(=O)O)cn6C5CC5)CC4)nn3)C(OC3OC(CO)C(O)C(N)C3O)C2O)C(O)C(O)C1O` (centres unmarked) [Compound 11f, 1-(4-(1-N-kanamycinmethyl)-1H-1,2,3-triazol-1-yl)-3-(ciprofloxacin)propan-2-ol], the “MIC E. coli XL1 blue/pET9d-aph(3′)-Ia” value with E. coli XL1 blue/pET9d is on record as 3 μg/ml. In the test on E. coli XL1 blue, the “MIC E. coli XL1 blue” value was 3 µg/mL (≈ 3.15 µM). Further, in the test on E. coli ATCC 25922, the “MIC E. coli 25922” value worked out at 1.5 µg/mL (≈ 1.57 µM). For the same molecule, the “MIC E. coli AG100B” value against E. coli AG100B (Table 6) worked out at 6 µg/mL (≈ 6.3 µM). Besides, in the test with E. coli R477-100 (Table 6), the “MIC E. coli R477-100” value stood at 3 µg/mL (≈ 3.15 µM). In addition, the “MIC E. coli AG100A” value in the test with E. coli AG100A (Table 6) stood at 0.75 µg/mL (≈ 0.787 µM). The “MIC Bacillus subtilis” value with B. subtilis ATCC 6633 was determined as 1.5 µg/mL (≈ 1.57 µM).

As for `NCC1OC(OC2C(C(=O)Nc3ccc(-c4cn(CCCCN5CCN(c6cc7c(cc6F)c(=O)c(C(=O)O)cn7C6CC6)CC5)nn4)cc3)OC(OC3C(O)C(N)CC(N)C3OC3OC(CN)C(O)C(O)C3N)C2O)C(N)C(O)C1O` (centres unmarked) [Compound 1c, N-(4-(1-(2-(ciprofloxacin)butyl)-1H-1,2,3-triazol-4-yl)-5″-phenyl)neomycin carboxamide], in the test with E. coli ATCC 25922, the “MIC E. coli ATCC 25922” value was found to be 6 µg/mL (≈ 5.19 µM). Moreover, the “MIC E. coli AG100B” value in the test with E. coli AG100B (setting [1]) amounted to 24 µg/mL (≈ 20.8 µM). Moreover, the “MIC E. coli R477-100” value against E. coli R477-100 (Table 4) was determined as 12 µg/mL (≈ 10.4 µM). Besides, in the test with E. coli AG100A (setting [1]), the “MIC E. coli AG100A” value stood at 1.5 µg/mL (≈ 1.3 µM). In addition, the “MIC MRSA ATCC 43300” value against MRSA ATCC 43300 was 24 µg/mL (≈ 20.8 µM). The “MIC B. subtilis ATCC 6633” value against B. subtilis ATCC 6633 is 6 µg/mL (≈ 5.19 µM).
